Test results as given in PMC10845951, “Characterization of a selective, iron-chelating antifungal compound that disrupts fungal metabolism and synergizes with fluconazole” (Microbiology Spectrum, 2024).

How the values were obtained:
C. albicans WT = conditions: Candida albicans, 24 h, read-out: C. albicans WT Inhibition (%)
Candida spp. = test: Compound screening: Candida proliferation (OD600, 24 h), strain panel; format: cell-based; conditions: YNB −iron
Description: For experiments, yeast cells were routinely cultured in YPD media and incubated at 30°C overnight. The cultures were refreshed the next day for 2–3 h in YNB −iron (0.69% yeast nitrogen base without amino acids or iron, with 2% dextrose) media, unless stated, at the same temperature. After incubation, the optical density (OD600) of the cell cultures was measured and adjusted to 0.15.
The collismycin compounds were provided by EntreChem (Spain) at stock solutions of 20 mM in DMSO and stored at −20°C. For serial dilutions of the compounds in clear 96-well plates, intermediate stock concentrations of 100 µM of compound (100 µL for each technical replicate) were prepared in YNB −iron media unless otherwise specified, and 1:1 serial dilutions were performed using a multi-channel pipette. Fifty microliters of cell culture (OD600 = 0.15) were added to the wells containing the compounds, for a total volume of 150 µL. The final concentrations in the wells (with three technical replicates) were equivalent to 0.5, 1, 2.1, 4.2, 8.4, 16.7, 33.3, and 66.6 µM. The OD600 of each well was quantified, and the plates were incubated inside plastic bags (to prevent evaporation) at 30°C for 24 h, after which the final OD600 was measured. The EC50 was calculated using the four-parameter log logistic function with the drc package in R ([57]).

c1ccc(-c2cccc(-c3ccccn3)n2)nc1 [2,2′:6′,2′′-terpyridine]
inhibition at 1 µM (C. albicans WT): -6.82%
inhibition at 2 µM (C. albicans WT): -0.43%
inhibition at 3 µM (C. albicans WT): 1.52%
inhibition at 4 µM (C. albicans WT): 7.25%
inhibition at 5 µM (C. albicans WT): 9.76%
inhibition at 10 µM (C. albicans WT): 79.1%
inhibition of growth of Candida spp. compared to ColA (Candida spp.): more potently than ColA
